Assay results published in ChEMBL document CHEMBL6182917, “Molecular-Level Strategy from Bottom-Up to Acquire High-Efficiency Antimicrobial Peptides” (J Med Chem, 2025).
Active and inactive are the calls of the source. The rule behind the calls is not given here.

Experiments:
Staphylococcus aureus [1] = experiment: Antibiofilm activity against Methicillin resistant Staphylococcus aureus ATCC 43300 assessed as inhibition of biofilm formation at 5 uM incubated for 48 hrs by crystal violet staining based microplate reader analysis; type: functional, organism-based
Staphylococcus aureus [2] = experiment: Antibacterial activity against Methicillin resistant Staphylococcus aureus ATCC 43300 assessed as reduction in bacterial growth at 2 to 5 uM; type: functional, organism-based; conditions: dose 2-5 µM
Staphylococcus aureus [3] = experiment: Antibacterial activity against Staphylococcus aureus infected in male Sprague-Dawley rat wound model assessed as wound healing with newly formed epidermal tissues at 2 uM administered every 2 days and measured after 10 days; type: functional, organism-based; conditions: time 10.0 day
Staphylococcus aureus [4] = experiment: Antibacterial activity against Methicillin resistant Staphylococcus aureus infected in male Sprague-Dawley rat wound model assessed as wound closure at 2 uM administered every 2 days and measured on day 10 (reference value: 66.84%); type: functional; conditions: time 10 day
Staphylococcus aureus [5] = experiment: Antibacterial activity against Staphylococcus aureus infected in male Sprague-Dawley rat wound model assessed as wound closure at 2 uM administered every 2 days and measured on day 4 relative to control; type: functional; conditions: time 4 day
Staphylococcus aureus [6] = experiment: Antibacterial activity against Staphylococcus aureus infected in male Sprague-Dawley rat wound model assessed as wound healing at 2 uM administered every 2 days and measured after 10 days; type: functional, organism-based; conditions: time 10.0 day
Staphylococcus aureus [7] = experiment: Antimicrobial activity against Staphylococcus aureus ATCC 29213 assessed as inhibition of microbial growth at 80 uM incubated for 10 hrs by spectrophotometric analysis; type: functional, organism-based
Staphylococcus aureus [8] = experiment: Antimicrobial activity against Staphylococcus aureus ATCC 29213 assessed as appearance of deformed bacteria at 20 uM incubated for 2 hrs by SEM analysis; type: functional, organism-based
Staphylococcus aureus [9] = experiment: Antibiofilm activity against Staphylococcus aureus ATCC 29213 assessed as increase in green fluorescence at 5 uM incubated for 12 hrs by SYTO9/PI staining based confocal laser scanning microscopic analysis; type: functional, organism-based
Staphylococcus aureus [10] = experiment: Antibiofilm activity against Staphylococcus aureus ATCC 29213 assessed as biofilm eradication at 10 uM incubated for 48 hrs by crystal violet staining based microplate reader analysis relative to control; type: functional
Staphylococcus aureus [11] = experiment: Antimicrobial activity against Staphylococcus aureus ATCC 29213 assessed as large area of intracellular content at 20 uM incubated for 2 hrs by SEM analysis; type: functional, organism-based
Staphylococcus aureus [12] = experiment: Antibiofilm activity against Staphylococcus aureus ATCC 29213 assessed as inhibition of biofilm formation at 5 uM incubated for 48 hrs by crystal violet staining based microplate reader analysis; type: functional, organism-based
Staphylococcus aureus [13] = experiment: Antimicrobial activity against Staphylococcus aureus ATCC 29213 assessed as appearance of wrinkled bacteria by measuring leakage at 20 uM incubated for 2 hrs by SEM analysis; type: functional, organism-based
Staphylococcus aureus [14] = experiment: Antibiofilm activity against Staphylococcus aureus ATCC 29213 assessed as damaged bacterial cells by measuring red fluorescence at 20 uM incubated for 12 hrs by SYTO9/PI staining based confocal laser scanning microscopic analysis; type: functional, organism-based
Staphylococcus aureus [15] = experiment: Antimicrobial activity against Staphylococcus aureus ATCC 29213 assessed as reduction in bacterial survival at 20 uM incubated for 8 hrs by spectrophotometric analysis relative to control; type: functional
Staphylococcus aureus [16] = experiment: Antimicrobial activity against Staphylococcus aureus ATCC 29213 assessed as appearance of damaged bacteria by measuring leakage at 20 uM incubated for 2 hrs by SEM analysis; type: functional, organism-based
Streptococcus mutans [17] = experiment: Antibacterial activity against Streptococcus mutans ATCC 25175 incubated for 18 hrs; type: functional
Staphylococcus aureus [18] = experiment: Antimicrobial activity against Staphylococcus aureus ATCC 29213 assessed as intracellular content leakage at 20 uM incubated for 2 hrs by SEM analysis; type: functional, organism-based
Escherichia coli [19] = experiment: Antibacterial activity against Escherichia coli ATCC 25922 incubated for 18 hrs; type: functional
MC3T3-E1 [20] = experiment: Cytotoxicity against mouse MC3T3-E1 cells assessed as reduction in cell viability at 2 uM incubated for 2 days by CCK-8 assay relative to control; type: toxicity, cell-based; conditions: mc3t3-e1, 48 h, time 2 day
[21] = system: Aggregatibacter actinomycetemcomitans; experiment: Antibacterial activity against Actinobacillus actinomycetemcomitans ATCC 43717 incubated for 18 hrs; type: functional
[22] = Hemolytic activity in rabbit RBC assessed as hemolytic rate at 32 uM incubated for 1 hrs by spectrophotometric analysis; type: toxicity, cell-based, Oryctolagus cuniculus, Erythrocyte; conditions: red blood cells (RBC), read-out: Activity
Staphylococcus aureus [23] = experiment: Antibacterial activity against Methicillin resistant Staphylococcus aureus ATCC 43300 incubated for 18 hrs; type: functional
Escherichia coli [24] = experiment: Bactericidal activity against Escherichia coli ATCC 25922 incubated for 18 hrs; type: functional
Staphylococcus aureus [25] = experiment: Antimicrobial activity against Staphylococcus aureus ATCC 29213 assessed as reduction in bacterial survival at 5 uM incubated for 2 hrs by spectrophotometric analysis relative to control; type: functional
Staphylococcus aureus [26] = experiment: Antibiofilm activity against Staphylococcus aureus ATCC 29213 assessed as inhibition of biofilm formation at 2 uM incubated for 48 hrs by crystal violet staining based microplate reader analysis; type: functional, organism-based
Staphylococcus aureus [27] = experiment: Antibacterial activity against Methicillin resistant Staphylococcus aureus infected in male Sprague-Dawley rat wound model assessed as wound closure at 2 uM administered every 2 days and measured on day 7 (reference value: 66.84%); type: functional; conditions: time 7 day
Staphylococcus aureus [28] = experiment: Antimicrobial activity against Staphylococcus aureus ATCC 29213 assessed as disappearance of normal shape at 20 uM incubated for 2 hrs by SEM analysis; type: functional, organism-based
[29] = system: Aggregatibacter actinomycetemcomitans; experiment: Bactericidal activity against Actinobacillus actinomycetemcomitans ATCC 43717 incubated for 18 hrs; type: functional
Staphylococcus aureus [30] = experiment: Antimicrobial activity against Staphylococcus aureus ATCC 29213 assessed as reduction in bacterial survival at 5 uM incubated for 8 hrs by spectrophotometric analysis relative to control; type: functional
[31] = system: Aggregatibacter actinomycetemcomitans; experiment: Antibiofilm activity against Actinobacillus actinomycetemcomitans ATCC 43717 assessed as inhibition of biofilm formation at 5 uM incubated for 48 hrs by crystal violet staining based microplate reader analysis; type: functional, organism-based
Streptococcus mutans [32] = experiment: Antibiofilm activity against Streptococcus mutans ATCC 25175 assessed as inhibition of biofilm formation at 5 uM incubated for 48 hrs by crystal violet staining based microplate reader analysis; type: functional, organism-based
MC3T3-E1 [33] = experiment: Cytotoxicity against mouse MC3T3-E1 cells assessed as reduction in cell viability at > 10 uM incubated for 2 days by CCK-8 assay; type: toxicity, cell-based; conditions: mc3t3-e1, 48 h, time 2 day
Staphylococcus aureus [34] = experiment: Antimicrobial activity against Staphylococcus aureus ATCC 29213 assessed as appearance of intracellular content in whole area at 20 uM incubated for 2 hrs by SEM analysis; type: functional, organism-based
Staphylococcus aureus [35] = experiment: Antibiofilm activity against Methicillin resistant Staphylococcus aureus ATCC 43300 assessed as reduction in colony count at 2 to 5 uM incubated for 24 hrs by CFU assay; type: functional, organism-based; conditions: dose 2-5 µM
Staphylococcus aureus [36] = experiment: Antimicrobial activity against Staphylococcus aureus ATCC 29213 assessed as inhibition of microbial growth at 5 uM incubated for 10 hrs by spectrophotometric analysis relative to control; type: functional; set-up: scale not given: the % may be the effect or the level left
Staphylococcus aureus [37] = experiment: Antimicrobial activity against Staphylococcus aureus ATCC 29213 assessed as appearance of damaged bacteria at 5 uM incubated for 2 hrs by SEM analysis relative to control; type: functional
Staphylococcus aureus [38] = experiment: Antibiofilm activity against Staphylococcus aureus ATCC 29213 assessed as damaged bacterial cells by measuring red fluorescence at 5 uM incubated for 12 hrs by SYTO9/PI staining based confocal laser scanning microscopic analysis; type: functional, organism-based
Staphylococcus aureus [39] = experiment: Antibiofilm activity against Staphylococcus aureus ATCC 29213 assessed as disappearance of colony formation at 2 uM incubated for 48 hrs by crystal violet staining based microplate reader analysis; type: functional, organism-based
Streptococcus mutans [40] = experiment: Bactericidal activity against Streptococcus mutans ATCC 25175 incubated for 18 hrs; type: functional
Staphylococcus aureus [41] = experiment: Bactericidal activity against Methicillin resistant Staphylococcus aureus ATCC 43300 incubated for 18 hrs; type: functional
Staphylococcus aureus [42] = experiment: Antimicrobial activity against Staphylococcus aureus ATCC 29213 assessed as reduction in bacterial survival at 5 uM incubated for 4 hrs by spectrophotometric analysis relative to control; type: functional

## CCn1cc(C(=O)O)c(=O)c2cc(F)c(N3CCNCC3)cc21
Staphylococcus aureus [1]
  Activity: Active; Weaker Inhibition Of Biofilm Observed
Staphylococcus aureus [2]
  Activity: inactive

## CO[C@@]1(NC(=O)Cc2cccs2)C(=O)N2C(C(=O)O)=C(COC(N)=O)CS[C@@H]21 [CEFOXITIN]
Staphylococcus aureus [3]
  Activity: Active
Staphylococcus aureus [4]
  Activity: 77.35%
Staphylococcus aureus [1]
  Activity: Active; Weaker Inhibition Of Biofilm Observed
Staphylococcus aureus [2]
  Activity: inactive
Staphylococcus aureus [5]
  Activity: 66.13%
Staphylococcus aureus [6]
  Activity: Active

## H-FGLDIIKKIAESF-NH2
Staphylococcus aureus [7]
  Activity: Active
Staphylococcus aureus [8]
  Activity: Active

## H-FGLKIIKKIAKSF-NH2
Staphylococcus aureus [9]
  Activity: inactive
Staphylococcus aureus [10]
  Activity: 100%
Staphylococcus aureus [11]
  Activity: Active
Staphylococcus aureus [12]
  Activity: Active
Staphylococcus aureus [13]
  Activity: Active
Staphylococcus aureus [14]
  Activity: Active
Staphylococcus aureus [15]
  Activity: 6.45%
Staphylococcus aureus [16]
  Activity: Active

## H-FLFDIIKKIAESG-NH2
Staphylococcus aureus [7]
  Activity: Active

## H-GLFDIIKKIAEFS-NH2
Staphylococcus aureus [8]
  Activity: Active

## H-GLFDIIKKIAESF-NH2
Streptococcus mutans [17]
  MIC: ≥ 80 µM
Staphylococcus aureus [18]
  Activity: Active
Escherichia coli [19]
  MIC: ≥ 80 µM
MC3T3-E1 [20]
  Activity: 91.16%
[21]
  MIC: ≥ 80 µM
[22]
  hemolysis at 1 h, 32 µM: < 10%
Staphylococcus aureus [23]
  MIC: ≥ 80 µM

## H-GLFKIIKKIAKSF-NH2
Escherichia coli [24]
  MBC: ≤ 10 µM
Staphylococcus aureus [25]
  Activity: 11.54%
Staphylococcus aureus [26]
  Activity: Active
Staphylococcus aureus [27]
  Activity: <=92.65%
Staphylococcus aureus [3]
  Activity: Active
Staphylococcus aureus [28]
  Activity: Active
[29]
  MBC: ≤ 10 µM
Staphylococcus aureus [30]
  Activity: 8.24%
Streptococcus mutans [17]
  MIC: ≤ 10 µM
[31]
  Activity: Active
Staphylococcus aureus [11]
  Activity: Active
Streptococcus mutans [32]
  Activity: Active
MC3T3-E1 [33]
  Activity: Toxic
Staphylococcus aureus [34]
  Activity: Active
Staphylococcus aureus [35]
  Activity: Active
Staphylococcus aureus [36]
  Activity: 100%
Staphylococcus aureus [4]
  Activity: 100%
Escherichia coli [19]
  MIC: ≤ 10 µM
Staphylococcus aureus [37]
  Activity: 100%
Staphylococcus aureus [14]
  Activity: Active
Staphylococcus aureus [38]
  Activity: Active
Staphylococcus aureus [39]
  Activity: Active
Staphylococcus aureus [1]
  Activity: Active
Streptococcus mutans [40]
  MBC: ≤ 10 µM
MC3T3-E1 [20]
  Activity: 85.49%
[21]
  MIC: ≤ 10 µM
[22]
  hemolysis at 1 h, 32 µM: < 10%
Staphylococcus aureus [23]
  MIC: ≤ 10 µM
Staphylococcus aureus [41]
  MBC: ≤ 10 µM
Staphylococcus aureus [5]
  Activity: 68.16%
Staphylococcus aureus [42]
  Activity: 8.89%
Staphylococcus aureus [15]
  Activity: 6.7%
Staphylococcus aureus [6]
  Activity: Active

## H-GLFKIIKKIAKSG-NH2
Staphylococcus aureus [8]
  Activity: Active
